Data reported in patent US12110289B2, “Heterocyclic compounds, preparation methods and uses thereof” (InventisBio Co., Ltd., priority 2020, dated 2024).
Like-named read-outs stand apart in the source and are kept apart here.

Columns and labels:
[1] = Human hepatocyte clearance study; type: in vitro ADME; details: human, pooled cryopreserved human hepatocytes (suspension); for hepatocyte CLint at 1 µM: read-out: Human In vitro Clint (μl/min/10^6 cells); for half-life at 1 µM: read-out: Human In vitro T1/2; for CLint scaled at 1 µM: read-out: Human Scale-up Clint
Method: (§1) The in vitro human hepatocyte clearance of compounds described here was studied using pooled human hepatocytes purchased from BioreclamationIVT (Westbury, NY, Cat #X008001, Lot #TQJ). The assay was conducted according to manufacturer's instruction. Briefly, 10 mM stock solutions of test compounds and positive control (Verapamil) were prepared in 100% DMSO. Thawing media (50 mL) used in the study consists of 31 mL Williams E medium (GIBCO Cat #12551-032), 15 mL isotonic percoll (GE Healthcare Cat #17-0891-09), 500 uL 100× GlutaMax (GIBCO Cat #35050), 750 uL HEPES (GIBCO Cat #15630-080), 2.5 mL FBS (Corning Cat #35-076-CVR), 50 uL human insulin (GIBCO Cat #12585-014) and 5 uL dexamethasone (NICPBP). Incubation media is made of Williams E medium supplemented with 1× GlutaMax. Both thawing medium and incubation medium (serum-free) were placed in a 37° C. water bath for at least 15 minutes prior to use. Compound stock solutions were diluted to 100 μM by combining 198 μL of 50% acetonitrile/50% water and 2 μL of 10 mM stock solution. Verapamil was use as positive control in the assay. Vials of cryopreserved hepatocytes were removed from storage and thawed in a 37° C. water bath with gentle shaking. Contents of the vial were poured into the 50 mL thawing medium conical tube. Vials were centrifuged at 100 g for 10 minutes at room temperature. […] […] […] The boiled hepatocytes were used to prepare negative samples. Aliquots of 198 μL hepatocytes were dispensed into each well of a 96-well non-coated plate. The plate was placed in the incubator on an orbital shaker at 500 rpm for approximately 10 minutes. Aliquots of 2 μL of the 100 μM test compound or positive control were added into respective wells of the non-coated 96-well plate to start the reaction. This assay was performed in duplicate. The plate was incubated in the incubator on an orbital shaker at 500 rpm for the designated time points. Twenty-five microliter of contents were transferred and mixed with 6 volumes (150 μL) of cold acetonitrile with IS (200 nM imipramine, 200 nM labetalol and 200 nM diclofenac) to terminate the reaction at time points of 0, 15, 30, 60, 90 and 120 minutes. Samples were centrifuged at 3,220 g for 25 minutes and aliquots of 150 μL of the supernatants were used for LC-MS/MS analysis. For data analysis, all calculations were carried out using Microsoft Excel. Peak areas were determined from extracted ion chromatograms. The in vitro half-life (t1/2) of parent compound was determined by regression analysis of the percent parent disappearance vs. time curve. […] Scaling factors for in vivo intrinsic clearance prediction using human hepatocytes are listed as: liver weight (g liver/kg body weight): 25.7; hepatocyte concentration (10^6 cells/g liver): 99; scaling factor: 2544.3.

pooled human hepatocytes = assay: Human hepatocyte clearance study; type: in vitro ADME
Method: as §1

[2] = system: Lung cancer cell line NCI-H358 containing KRas G12C mutation; assay: Assay for cell proliferation (Cell-titer Glo, 5 days); type: cell-based, human; details: NCI-H358, 5 days, Cell-titer Glo, read-out: IC50 (nM), Inhibition of NCI-H358 Cell Proliferation
Outline: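 NCI-H358 (KRas G12C) cells, 2000 per well, attached overnight at 37 °C, 5% CO2, then treated with compound for 5 days at 0.5% DMSO final. Proliferation measured by CellTiter-Glo luminescence after 10 min at RT.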

[3] = working cell density 0.5 × 10^6 viable cells/mL
[4] = working cell density 0.5 × 10^6 viable cells/mL, scaling factor 2544.3
[5] = working cell density 2 × 10^6 viable cells/mL

IC50 ([2]; Homo sapiens, NCI-H358, 120 h)	IC50 [2]	SMILES	hepatocyte CLint at 1 µM [1, 3]	half-life at 1 µM [1, 3]	CLint scaled at 1 µM [1, 4]	Human Hepatocyte Remaining Percentage @ 120 min (%) (pooled human hepatocytes; [3])	Human In vitro T1/2 (min) (pooled human hepatocytes; [3])	hepatocyte CLint at 1 µM [1, 5]	half-life at 1 µM [1, 5]	CLint scaled at 1 µM [1, 5]	Human Hepatocyte Remaining Percentage @ 120 min (%) (pooled human hepatocytes; [5])
10 nM		C=CC(=O)N1CCN(c2nc(=O)n(-c3c(C4CC4)ncnc3C3CC3)c3nc(-c4ccccc4F)c(Cl)cc23)[C@@H](C)C1 [Compound 1]	20.8 µL/min/1e6 cells	1.11 h	53 mL/min/kg	27.9%					
4.9 nM		C=CC(=O)N1CCN(c2nc(=O)n(-c3c(C(C)C)nc(N)nc3C(C)C)c3nc(-c4ccccc4F)c(Cl)cc23)[C@@H](C)C1 [Compound 6]	19.3 µL/min/1e6 cells	1.2 h	49.2 mL/min/kg	33.4%					
11.2 nM		C=CC(=O)N1CCN(c2nc(=O)n(-c3c(C(C)C)nc(OC)nc3C(C)C)c3nc(-c4ccccc4F)c(Cl)cc23)[C@@H](C)C1 [Compound 8]	63.8 µL/min/1e6 cells	0.362 h	162 mL/min/kg	2.1%					
4.1 nM		C=CC(=O)N1CCN(c2nc(=O)n(-c3c(C(C)C)nc(C)nc3C(C)C)c3nc(-c4ccccc4F)c(Cl)cc23)[C@@H](C)C1 [Compound 9]	27.6 µL/min/1e6 cells	0.837 h	70.2 mL/min/kg	18.6%					
6.5 nM		C=CC(=O)N1CCN(c2nc(=O)n(-c3c(C(C)C)nc(OCCN(C)C)nc3C(C)C)c3nc(-c4ccccc4F)c(Cl)cc23)[C@@H](C)C1 [Compound 13]				103%	∞^b				
8.8 nM		C=CC(=O)N1CCN(c2nc(=O)n(-c3c(C(C)C)nc(N4CCNCC4)nc3C(C)C)c3nc(-c4ccccc4F)c(Cl)cc23)[C@@H](C)C1 [Compound 14]	4.5 µL/min/1e6 cells	5.1 h	11.5 mL/min/kg	75.7%					
6.7 nM		C=CC(=O)N1CCN(c2nc(=O)n(-c3c(C4CC4)nc(OCCN(C)C)nc3C3CC3)c3nc(-c4ccccc4F)c(Cl)cc23)[C@@H](C)C1 [Compound 20]	5.1 µL/min/1e6 cells	4.57 h	12.9 mL/min/kg	74.3%					
29.9 nM		C=CC(=O)N1CCN(c2nc(=O)n(-c3c(C4CC4)nc(OCCN(C)C)nc3C3CC3)c3nc(-c4ccccc4F)c(F)cc23)[C@@H](C)C1 [Compound 21]	1.8 µL/min/1e6 cells	13.1 h	4.5 mL/min/kg	90.6%					
7.6 nM		C=CC(=O)N1CCN(c2nc(=O)n(-c3c(C(C)C)nc(OCCN(C)C)nc3C(C)C)c3nc(-c4c(O)cccc4F)c(Cl)cc23)[C@@H](C)C1 [Compound 22]	2.9 µL/min/1e6 cells	7.87 h	7.5 mL/min/kg	83.3%					
6.9 nM		C=CC(=O)N1CCN(c2nc(=O)n(-c3c(C(C)C)nc(OCCN(C)C)nc3C(C)C)c3nc(-c4c(N)cccc4F)c(Cl)cc23)[C@@H](C)C1 [Compound 23]	2.5 µL/min/1e6 cells	9.23 h	6.4 mL/min/kg	82.4%					
9.1 nM		C=CC(=O)N1C[C@H](C)N(c2nc(=O)n(-c3c(C(C)C)nc(OCCN(C)C)nc3C(C)C)c3nc(-c4ccccc4F)c(Cl)cc23)C[C@H]1C [Compound 24]	5.9 µL/min/1e6 cells	3.9 h	15.1 mL/min/kg	70.1%					
23.3 nM		C=CC(=O)N1CCN(c2nc(=O)n(-c3c(C4CC4)nc(C)nc3C3CC3)c3nc(-c4c(O)cccc4F)c(F)cc23)[C@@H](C)C1 [Compound 28]	8.4 µL/min/1e6 cells	2.73 h	21.5 mL/min/kg	61.1%					
11.4 nM		C=CC(=O)N1CCN(c2nc(=O)n(-c3c(C4CC4)nc(C)nc3C3CC3)c3nc(-c4c(N)cccc4F)c(F)cc23)[C@@H](C)C1 [Compound 29]	8.5 µL/min/1e6 cells	2.72 h	21.7 mL/min/kg	60.8%					
7.5 nM		C=CC(=O)N1CCN(c2nc(=O)n(-c3c(C4CC4)ncnc3C3CC3)c3nc(-c4c(O)cccc4F)c(F)cc23)[C@@H](C)C1 [Compound 40]						12.7 µL/min/1e6 cells	0.91 h	32.3 mL/min/kg	20.7%
6.9 nM		C=CC(=O)N1CCN(c2nc(=O)n(-c3c(C4CC4)ncnc3C3CC3)c3nc(-c4c(N)cccc4F)c(F)cc23)[C@@H](C)C1 [Compound 41]						8.2 µL/min/1e6 cells	1.41 h	20.9 mL/min/kg	38.9%
22.8 nM		C=CC(=O)N1C[C@H](C)N(c2nc(=O)n(-c3c(C4CC4)nc(C)nc3C3CC3)c3nc(-c4c(O)cccc4F)c(F)cc23)C[C@H]1C [Compound 52]	7.3 µL/min/1e6 cells	3.17 h	18.5 mL/min/kg	65.3%					
13.1 nM		C=CC(=O)N1CCN(c2nc(=O)n(-c3ccc4c(ncn4C)c3C(C)C)c3nc(-c4ccccc4F)c(Cl)cc23)[C@@H](C)C1 [Compound 72]	13.3 µL/min/1e6 cells	1.73 h	34 mL/min/kg	41.2%					
2.4 nM		C=CC(=O)N1CCN(c2nc(=O)n(-c3c(C4CC4)ncnc3C3CC3)c3nc(-c4c(N)cccc4F)c(Cl)cc23)[C@@H](C)C1 [Compound 124]						8.5 µL/min/1e6 cells	1.35 h	21.7 mL/min/kg	37.5%
6.1 nM		C=CC(=O)N1CCN(c2nc(=O)n(-c3c(C4CC4)ncnc3C3CC3)c3nc(-c4c(O)cccc4F)c(Cl)cc23)[C@@H](C)C1 [Compound 125]						14.5 µL/min/1e6 cells	0.8 h	36.8 mL/min/kg	16.5%
3.5 nM		C=CC(=O)N1C[C@H](C)N(c2nc(=O)n(-c3c(C4CC4)ncnc3C3CC3)c3nc(-c4c(O)cccc4F)c(Cl)cc23)C[C@H]1C [Compound 127]						4.4 µL/min/1e6 cells	2.64 h	11.1 mL/min/kg	55.5%
8.7 nM		C=CC(=O)N1C[C@H](C)N(c2nc(=O)n(-c3c(C4CC4)ncnc3C3CC3)c3nc(-c4ccccc4F)c(Cl)cc23)C[C@H]1C [Compound 128]						10.3 µL/min/1e6 cells	1.12 h	26.1 mL/min/kg	39.9%
1.5 nM		C=CC(=O)N1C[C@H](C)N(c2nc(=O)n(-c3c(F)cc4c(ncn4C)c3C(C)C)c3nc(-c4c(O)cccc4F)c(Cl)cc23)C[C@H]1C [Compound 166]									
	44.4 nM	C=CC(=O)N1C[C@H](C)N(c2nc(=O)n(-c3c(C(C)C)nc4c(ncn4C)c3C)c3nc(-c4ccccc4F)c(Cl)cc23)C[C@H]1C [Compound 181]									
